This is an account of results in PubChem BioAssay (NCI).

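48-hour exposure; five concentrations; linearly interpolated endpoints. The concentration for 50% growth inhibition is given as GI50. TGI marks complete inhibition of growth.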 Where a SMILES comes first, the peptide text is derived from it. The star is where a group is joined. Cbz = O=C(OCc1ccccc1)*; OBn = c1ccc(CO*)cc1

Common to all, as to assay: inhibition of tumour cell growth, NCI panel, 48 h
Experiment [1] deals with CAKI-1 renal.
Experiment [2] relates to COLO 205 colon.
The subject of experiment [3] is K-562 leukemia.
Experiment [4] has as its system MDA-MB-231 breast.
Experiment [5] concerns NCI-H226 lung.
Experiment [6] deals with RPMI-8226 leukemia.
Experiment [7] relates to SR leukemia.
Experiment [8] has as its system TK-10 renal.
Experiment [9] deals with UO-31 renal.
Experiment [10] relates to OVCAR-4 ovarian.

Turning to `O=c1n(/N=C/c2ccccc2)c(=O)n2n1C1C=CC2CC1`, the TGI in [1], in experiment [2], in experiment [3], in experiment [4], in experiment [5] and in [6] was greater than 100 µM each time. In addition, the TGI in experiment [7], in [8] and in experiment [9] was greater than 100 µM in each case.
On to `Clc1cccc(Cl)c1C=NC12CC3CC(CC(C3)C1)C2`, for which the TGI in experiment [1], in experiment [2], in experiment [3], in [4], in experiment [5] and in [10] was greater than 10 µM throughout. For the same compound, the TGI in experiment [6], in experiment [7] and in experiment [8] was greater than 10 µM throughout.
For `O=C(O)c1c[nH]c2c(Sc3ccccc3)nccc2c1=O`, the TGI in experiment [1], in experiment [2], in experiment [4], in [5], in experiment [10] and in [8] was greater than 100 µM throughout. In experiment [9], this compound returned a TGI greater than 100 µM.
As to `COC(=O)CNC(=O)C(C)NC(=O)C(CC(=O)OCc1ccccc1)NC(=O)OCc1ccccc1` (stereo not drawn) (Cbz-Asp(OBn)-Ala-Gly-OMe; configuration not given here), the TGI was greater than 100 µM in experiment [1]; greater than 100 µM in [2]; greater than 100 µM in experiment [3]; 46.9 µM in [4]; greater than 100 µM in [5]; greater than 100 µM in experiment [6]. The TGI in [7] was greater than 100 µM; in experiment [8] it was greater than 100 µM; in [9], 62.8 µM.
As to `COc1cc2c(/C=C3/C(=O)Nc4ccc(Cl)cc43)c(Cl)n(Cc3ccccc3)c2cc1C`, the TGI was 10.6 µM in experiment [1]; 6.36 µM in experiment [2]; greater than 100 µM in experiment [3]; 6.04 µM in experiment [4]; 9.61 µM in [5]; 6.9 µM in experiment [6]. In addition, the TGI in [7] came to 5.9 µM; in [8], 3.76 µM; in experiment [9], 6.78 µM.
For the compound `COc1ccc(-c2ccc(-c3ccc(C(=N)N)nc3)s2)cc1`, the GI50 was 1.64 µM in [1]; 1.89 µM in experiment [2]; 1.09 µM in experiment [3]; 1.75 µM in experiment [4]; 1.79 µM in experiment [10]; 1.89 µM in [8]. The GI50 in experiment [9] is 1.64 µM. The TGI in experiment [1] came to 3 µM; in [2] it was 3.92 µM; in experiment [3], 3.53 µM; in [4], 3.28 µM; in [10], 3.3 µM; in experiment [8], 3.54 µM. The same compound yielded a TGI in [9] of 3.08 µM.
Regarding `CCOC(=O)/C(N=Nc1ccc(-n2c(C)nc3ccccc3c2=O)cc1)=C(/C)O`, the TGI was greater than 100 µM in experiment [1]; greater than 100 µM in experiment [2]; greater than 100 µM in [3]; greater than 100 µM in experiment [4]; 80.1 µM in experiment [5]; greater than 100 µM in experiment [6]. The TGI in experiment [7], in [8] and in [9] was greater than 100 µM each time.
Turning to `CCOC(=O)CCC(NC(=O)Cc1ccc(Nc2nc3ccccc3nc2-c2ccccc2)cc1)C(=O)OCC` (stereo not drawn), the TGI in experiment [1] was greater than 100 µM; in experiment [2], greater than 100 µM; in [3] it was greater than 100 µM; in [4], 53.3 µM; in experiment [5] it was greater than 100 µM; in [10], greater than 100 µM. The TGI in experiment [7] is greater than 100 µM; in experiment [8], 58.5 µM; in experiment [9] it was greater than 100 µM.
Turning to `O=C1NC(N2CCOCC2)=N/C1=C\c1cccs1`, the TGI in experiment [1], in [2], in experiment [4], in [5], in experiment [10] and in experiment [6] was greater than 100 µM in each case. Also, the TGI in experiment [7], in experiment [8] and in experiment [9] was greater than 100 µM in each case.
For `NC1CC(=O)c2cc(Cl)sc21` (stereo not drawn), the TGI in [1], in [2], in experiment [3], in experiment [4], in [5] and in [10] was greater than 100 µM each time. Also, the TGI in experiment [8] and in [9] was greater than 100 µM each time.
On to `CCOC(=O)/C(O)=C(/C=N\C(=S)Nc1ccccc1Cl)C(=O)OCC`, for which the TGI in experiment [1], in [2], in experiment [3], in [4], in [5] and in [10] was greater than 100 µM in each case. Also, the TGI in experiment [6], in experiment [7] and in [9] was greater than 100 µM throughout.
Turning to `Cc1occc1C(=S)Nc1ccc(Cl)c(C(=O)OCC(F)(F)F)c1`, the TGI was found to be 82.6 µM in experiment [1]; 67.6 µM in [2]; 59.1 µM in [3]; 35.2 µM in experiment [4]; 35.9 µM in [5]; 45.9 µM in experiment [10]. Further, the figures for the TGI in [6], in experiment [8] and in experiment [9] were 51.5 µM, 43 µM and 39.1 µM, respectively.
Take `O=C(O)C1CC2C3CCC2C1C3=O` (stereo not drawn): the TGI in experiment [1], in experiment [2], in experiment [3], in [4], in experiment [5] and in experiment [10] was greater than 100 µM in each case. For the same compound, the TGI in [7], in experiment [8] and in [9] was greater than 100 µM each time.
As for `CN(C)c1ccc(-c2c(C#N)c(N)[nH]c(=S)c2C#N)cc1`, the TGI in experiment [1] is greater than 100 µM; in [2], greater than 100 µM; in [3], greater than 100 µM; in experiment [4], greater than 100 µM; in experiment [5] it was 92.2 µM; in experiment [10] it was greater than 100 µM. For the same compound, the TGI in [7], in [8] and in experiment [9] was greater than 100 µM each time.
